Data from ChEMBL document CHEMBL6083254, “Optimization of B-Ring-Functionalized Antimalarial Tambjamines and Prodiginines” (J Med Chem, 2024).
pIC50: −log10 of the molar value.

Legend:
HepG2 = experiment: Cytotoxicity against human HepG2 cells assessed as cell viability incubated for 72 hrs by MTT assay; format: toxicity, cell-based; conditions: hepg2
Plasmodium falciparum [1] = experiment: microbe, parasite or virus in culture; conditions: Tm90-C2B, 72 h
Plasmodium falciparum [2] = experiment: microbe, parasite or virus in culture; conditions: D6, 72 h
in vitro = conditions: human
Description: Selectivity index, ratio of IC50 for cytotoxicity against human HepG2 cells assessed as cell viability to IC50 for antiplasmodial activity against asexual erythrocytic stage of Plasmodium falciparum D6 assessed as inhibition of parasitic growth incubated

Plasmodium falciparum [3] = experiment: microbe, parasite or virus in culture; conditions: Dd2, 72 h
Plasmodium yoelii = experiment: Antiplasmodial activity against asexual erythrocytic stage of Plasmodium yoelii infected in female CFI mouse model assessed as reduction in parasitemia at 25 mg/kg, po administered once daily for 4 days and measured on day 5 by Giemsa staining based microscopic analysis relative to control; format: functional; design: scale not given: the % may be the effect or the level left; conditions: time 5 day
[4] = Aqueous solubility of compound in PBS buffer at pH 7.4 incubated for 90 mins by UV-vis spectroscopic analysis; conditions: pH 7.4, 1.5 h
[5] = Metabolic stability in mouse liver microsomes assessed as half life measured upto 60 mins LC-MS analysis
[6] = Metabolic stability in human liver microsomes assessed as half life measured upto 60 mins LC-MS analysis
[7] = Metabolic stability in mouse liver microsomes assessed as intrinsic clearance measured upto 60 mins LC-MS analysis
[8] = Metabolic stability in human liver microsomes assessed as intrinsic clearance measured upto 60 mins LC-MS analysis

| Structure (SMILES) | pIC50 (HepG2) | pIC50 (Plasmodium falciparum [1]) | pIC50 (Plasmodium falciparum [2]) | selectivity ratio (in vitro) | pIC50 (Plasmodium falciparum [3]) | Activity (Plasmodium yoelii) [%] | solubility [4] [µM] | half-life at 1 h [5] [min] | half-life at 1 h [6] [min] | microsomal CLint at 1 h [7] [µL/min/mg] | microsomal CLint at 1 h [8] [µL/min/mg] |
| --- | --- | --- | --- | --- | --- | --- | --- | --- | --- | --- | --- |
| CCCCCCCCCCCCN/C=C1\N=C(c2ccc[nH]2)C=C1OC | 5.21 | 7.01 | 7.18 | 93 | 7.16 | – | – | – | – | – | – |
| CCCCCCCCCCCCN/C=C1\N=C(c2ccc[nH]2)C=C1Oc1ccc(Cl)cc1 | – | < 5.60 | < 5.60 | – | < 5.60 | – | – | – | – | – | – |
| CCOC1=CC(c2ccc[nH]2)=N/C1=C\NC1CCCCCC1.Cl | 5.65 | 8.31 | 8.13 | – | 8.28 | 8.5 | 178 | > 60 | 35.7 | 14.4 | 38.8 |
| CCCCCCCCCCCCN/C=C1\N=C(c2ccc[nH]2)C=C1OCc1ccc(OC(F)(F)F)cc1 | – | 6.49 | 6.38 | – | 6.46 | – | – | – | – | – | – |
| Cl.Clc1ccc(OC2=CC(c3ccc[nH]3)=N/C2=C\NC23CC4CC(CC(C4)C2)C3)cc1 | – | 7.55 | 7.28 | 275 | 7.66 | 58 | – | > 60 | > 60 | 2.1 | 6.72 |
| Cl.FC(F)(F)Oc1ccc(COC2=CC(c3ccc[nH]3)=N/C2=C\NC23CC4CC(CC(C4)C2)C3)cc1 | 5.43 | 8.61 | 8.70 | 1860 | 8.74 | 81.8 | < 3.125 | 56.4 | 45.4 | 24.6 | 30.6 |
| CCCCCCCCCCCCN/C=C1\N=C(c2ccc[nH]2)C=C1OCCC.Cl | 5.35 | 7.41 | 7.48 | 135 | 7.35 | 16.4 | – | – | – | – | – |
| C1=C(Oc2ccccc2)/C(=C/NC23CC4CC(CC(C4)C2)C3)N=C1c1ccc[nH]1.Cl | 5.07 | 7.75 | 7.59 | 331 | 7.66 | >99 | 7.88 | > 60 | 34.7 | 18.9 | 40 |
| CCCCCCCCCCCCN/C=C1\N=C(c2ccc[nH]2)C=C1OCc1ccccc1.Cl | 5.11 | 7.26 | – | 144 | 7.22 | 0 | – | – | – | – | – |
| CCCOC1=CC(c2ccc[nH]2)=N/C1=C\NCC(C)C.Cl | 5.12 | 7.64 | 7.68 | 365 | 7.81 | 75.4 | – | – | – | – | – |
| CCOC1=CC(c2ccc[nH]2)=N/C1=C\NC12CC3CC(CC(C3)C1)C2.Cl | 5.97 | 9.15 | 9.30 | 2150 | 9.11 | 24 | 115 | 32.7 | 17.7 | 42.4 | 78.3 |
| CC(C)OC1=CC(c2ccc[nH]2)=N/C1=C\NC1CCCCCC1.Cl | 5.45 | 8.27 | 8.45 | 1020 | 8.42 | 43.6 | 157 | 18 | 12.2 | 76.8 | 114 |
| CCCCCCCCCCCCN/C=C1\N=C(c2ccc[nH]2)C=C1OCc1ccc(Cl)cc1 | – | 6.52 | 6.39 | – | 6.47 | – | – | – | – | – | – |
| CCCCCCCCCCCCN/C=C1\N=C(c2ccc[nH]2)C=C1Oc1ccc(OC(F)(F)F)cc1 | – | < 5.60 | < 5.60 | – | < 5.60 | – | – | – | – | – | – |
| C1=C(Oc2ccccc2)/C(=C/NC2CCCCCC2)N=C1c1ccc[nH]1 | – | 6.56 | 6.45 | – | 6.50 | – | – | – | – | – | – |
| CCCOC1=CC(c2ccc[nH]2)=N/C1=C\NC1CCCCCC1.Cl | 5.54 | 9.46 | – | 7960 | 9.20 | 75.5 | 77.7 | 53.2 | 35.2 | 26 | 39.4 |
| CC(C)OC1=CC(c2ccc[nH]2)=N/C1=C\NC12CC3CC(CC(C3)C1)C2.Cl | 5.90 | 8.69 | 8.75 | 715 | 8.70 | 74.1 | 78 | 30.9 | 14.2 | 44.8 | 97.6 |
| CCCCCCCCCCCc1ccc(/C=C2\N=C(c3ccc[nH]3)C=C2OCc2ccc(OC(F)(F)F)cc2)[nH]1 | – | < 5.60 | < 5.60 | – | < 5.60 | – | – | – | – | – | – |
| CC(C)CN/C=C1\N=C(c2ccc[nH]2)C=C1Oc1ccccc1 | – | 6.05 | – | – | 5.77 | – | – | – | – | – | – |
| FC(F)(F)Oc1ccc(OC2=CC(c3ccc[nH]3)=N/C2=C\NC2CCCCCC2)cc1 | – | 5.77 | 5.92 | – | < 5.60 | – | – | – | – | – | – |
| CC(C)CN/C=C1\N=C(c2ccc[nH]2)C=C1OC(C)C.Cl | 5.13 | 7.47 | – | 201 | 7.42 | 0 | – | – | – | – | – |

| Structure (SMILES) | pIC50 (HepG2) | pIC50 (Plasmodium falciparum [1]) | pIC50 (Plasmodium falciparum [2]) | selectivity ratio (in vitro) | pIC50 (Plasmodium falciparum [3]) | Activity (Plasmodium yoelii) [%] | solubility [4] [µM] | half-life at 1 h [5] [min] | half-life at 1 h [6] [min] | microsomal CLint at 1 h [7] [µL/min/mg] | microsomal CLint at 1 h [8] [µL/min/mg] |
| --- | --- | --- | --- | --- | --- | --- | --- | --- | --- | --- | --- |
| CCOC1=CC(c2ccc[nH]2)=N/C1=C\NCC(C)C.Cl | 5.33 | 7.38 | 7.52 | 154 | 7.33 | 0 | – | – | – | – | – |
| CC(C)CN/C=C1\N=C(c2ccc[nH]2)C=C1OCc1ccc(OC(F)(F)F)cc1 | – | 6.47 | – | – | 6.69 | – | – | – | – | – | – |
| CCCCCCCCCCCc1ccc(/C=C2\N=C(c3ccc[nH]3)C=C2OCc2ccc(Cl)cc2)[nH]1 | – | 5.73 | – | – | 6.03 | – | – | – | – | – | – |
| C1=C(OCc2ccccc2)/C(=C/NC2CCCCCC2)N=C1c1ccc[nH]1.Cl | 5.43 | 7.67 | 7.72 | 194 | 7.76 | 59.5 | 15.8 | > 60 | 16.3 | 16 | 85.1 |
| COC1=CC(c2ccc[nH]2)=N/C1=C\NCC(C)C | 4.72 | 6.99 | 6.95 | 170 | 7.03 | 18.2 | – | – | – | – | – |
| Cl.Clc1ccc(COC2=CC(c3ccc[nH]3)=N/C2=C\NC23CC4CC(CC(C4)C2)C3)cc1 | 5.65 | 7.94 | 7.85 | 160 | 8.07 | 40 | – | – | – | – | – |
| CC(C)CN/C=C1\N=C(c2ccc[nH]2)C=C1Oc1ccc(OC(F)(F)F)cc1 | – | < 5.60 | < 5.60 | – | < 5.60 | – | – | – | – | – | – |
| CCCCCCCCCCCCN/C=C1\N=C(c2ccc[nH]2)C=C1OC(C)C.Cl | 5.51 | 7.43 | 7.53 | 103 | 7.43 | 0 | – | – | – | – | – |
| CCCCCCCCCCCCN/C=C1\N=C(c2ccc[nH]2)C=C1Oc1ccccc1 | – | < 5.60 | < 5.60 | – | < 5.60 | – | – | – | – | – | – |
| CC(C)CN/C=C1\N=C(c2ccc[nH]2)C=C1OCc1ccccc1.Cl | 5.05 | 7.28 | 7.31 | 182 | 7.24 | 0 | – | – | – | – | – |
| CCCCCCCCCCCc1ccc(/C=C2\N=C(c3ccc[nH]3)C=C2Oc2ccc(Cl)cc2)[nH]1 | – | 5.64 | 5.88 | – | 5.85 | – | – | – | – | – | – |
| CCCCCCCCCCCCN/C=C1\N=C(c2ccc[nH]2)C=C1OCC.Cl | 5.36 | 7.90 | 7.95 | 391 | 8.01 | 0 | – | – | – | – | – |
| Clc1ccc(COC2=CC(c3ccc[nH]3)=N/C2=C\NC2CCCCCC2)cc1 | 5.07 | 7.01 | 6.92 | 70 | 7.10 | – | – | – | – | – | – |
| OC(c1cc(C(F)(F)F)nc2c(C(F)(F)F)cccc12)C1CCCCN1 (stereo unspecified) [MEFLOQUINE] | 4.86 | – | – | – | – | – | – | – | – | – | – |
| CC(C)CN/C=C1\N=C(c2ccc[nH]2)C=C1OCc1ccc(Cl)cc1 | 5.16 | 7.16 | 7.05 | 78 | 7.21 | – | – | – | – | – | – |
| Cl.FC(F)(F)Oc1ccc(COC2=CC(c3ccc[nH]3)=N/C2=C\NC2CCCCCC2)cc1 | 5.24 | 7.58 | 7.31 | 116 | 7.41 | 72.3 | – | – | – | – | – |
| Clc1ccc(OC2=CC(c3ccc[nH]3)=N/C2=C\NC2CCCCCC2)cc1 | – | 6.25 | 6.29 | – | 6.17 | – | – | – | – | – | – |
| CCCCCCCCCCCc1ccc(/C=C2\N=C(c3ccc[nH]3)C=C2Oc2ccc(OC(F)(F)F)cc2)[nH]1 | – | < 5.60 | < 5.60 | – | < 5.60 | – | – | – | – | – | – |
| CC(C)CN/C=C1\N=C(c2ccc[nH]2)C=C1Oc1ccc(Cl)cc1 | – | < 5.60 | < 5.60 | – | < 5.60 | – | – | – | – | – | – |
| Cl.FC(F)(F)Oc1ccc(OC2=CC(c3ccc[nH]3)=N/C2=C\NC23CC4CC(CC(C4)C2)C3)cc1 | 4.55 | 6.69 | 6.71 | 146 | 6.62 | 83 | – | – | – | – | – |
